This passage reports IC50 results from patent US10308648B2, “Inhibitors of cyclin-dependent kinase 7 (CDK7)” (Syros Pharmaceuticals, Inc., priority 2014, dated 2019).

In experiment [1] the target is CDK7 (Homo sapiens (Human), UniProt P50613). The experiment can be described thus: CDK7 kinase activity (Life Technologies Adapta kinase assay). In kind it is biochemical. To be noted: 10 μM down to 0.514 nM, 3-fold serial dilutions, read-out: CDK7 Inhibition (IC50). As to the method: Compounds of the invention were assayed for CDK7 activity at Life Technologies™ (Grand Island, N.Y.) using their commercially available Adapta® kinase assay services. Test compounds were tested at concentrations ranging from 10 μM down to 0.514 nM in a series of 3-fold serial dilutions. Details of this assay, including substrates used, are available on the Life Technologies web site (http://www.lifetechnologies.com/us/en/home/life-science/drug-discovery/target-and-lead-identification-and-validation/kinasebiology/kinase-activity-assays.html). The results of the assay are shown below in Table 3 where “A” represents a calculated IC50 of less than 100 nM; “B” represents a calculated IC50 of between 100 nM and 1 μM; and “C” represents a calculated IC50 of greater than 1 μM.

Experiment [2] relates to Jurkat cells. The experiment can be described thus: Inhibition of proliferation of Jurkat cells (CellTiter-Glo). Format: cell-based. To be noted: Homo sapiens, 72 hour proliferation assay. As to the method:
Representative compounds of the invention were tested at different concentrations (from 10 μM to […]; 0.5 log serial dilutions) for their ability to inhibit the proliferation of Jurkat cells. Known CDK inhibitors flavopiridol and triptolide were used as positive controls. Cells were grown in RPMI 1640+10% FBS+1% Glutamax. The cells were supplemented with FBS (Life Technologies) and 100 U·mL^−1 penicillin, 100 μg·mL^−1 streptomycin (Invitrogen) and cultured at 37° C. in a humidified chamber in the presence of 5% CO2. Proliferation assays were conducted over a 72 hour time period. CellTiter-Glo® (Promega Corporation, Madison, Wis. USA) was used to assess the anti-proliferative effects of the compounds following manufacturer's directions and utilizing the reagents supplied with the CellTiter-Glo® kit. In this table, “A” represents an IC50 of less than 500 nM; “B” an IC50 of between 500 nM and 5 μM; and “C” an IC50 of greater than 5 μM.
In general terms: In ATP-based viability assays light output follows the ATP content of the culture.

The term IC50 denotes the concentration needed to halve the response being measured.

Structures can show the parent of a compound that is named as a salt. Where only a bound is given, the exact number is not on record here.

Sequence of CDK7 (P50613 whole entry): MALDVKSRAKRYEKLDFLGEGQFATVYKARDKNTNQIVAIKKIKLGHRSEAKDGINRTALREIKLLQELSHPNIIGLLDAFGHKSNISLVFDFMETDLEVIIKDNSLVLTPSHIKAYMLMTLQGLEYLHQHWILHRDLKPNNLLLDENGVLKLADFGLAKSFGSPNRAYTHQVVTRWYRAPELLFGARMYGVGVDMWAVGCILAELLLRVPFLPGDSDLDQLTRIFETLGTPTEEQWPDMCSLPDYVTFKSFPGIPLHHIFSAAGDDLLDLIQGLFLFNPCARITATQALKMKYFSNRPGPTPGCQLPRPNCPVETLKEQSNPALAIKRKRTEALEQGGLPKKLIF
Sequence of CDK7 (P51946 whole entry partner): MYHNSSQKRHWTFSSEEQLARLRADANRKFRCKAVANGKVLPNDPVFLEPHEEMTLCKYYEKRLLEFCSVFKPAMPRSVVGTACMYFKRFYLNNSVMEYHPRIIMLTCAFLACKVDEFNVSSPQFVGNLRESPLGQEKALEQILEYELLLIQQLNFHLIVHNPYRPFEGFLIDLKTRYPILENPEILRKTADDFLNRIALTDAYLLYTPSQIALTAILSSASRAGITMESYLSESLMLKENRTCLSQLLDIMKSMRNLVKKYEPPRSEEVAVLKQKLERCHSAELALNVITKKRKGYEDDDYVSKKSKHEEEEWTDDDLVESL
Sequence of CDK7 (P51948 whole entry partner): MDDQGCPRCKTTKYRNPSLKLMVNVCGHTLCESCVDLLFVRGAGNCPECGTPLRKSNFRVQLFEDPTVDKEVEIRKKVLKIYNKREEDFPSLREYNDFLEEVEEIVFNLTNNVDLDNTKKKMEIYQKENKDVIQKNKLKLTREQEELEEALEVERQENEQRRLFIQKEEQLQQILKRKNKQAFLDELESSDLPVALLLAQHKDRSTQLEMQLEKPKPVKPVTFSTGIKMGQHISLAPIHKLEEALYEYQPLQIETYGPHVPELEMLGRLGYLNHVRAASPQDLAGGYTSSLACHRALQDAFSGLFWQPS

As to `Nc1ccc(C(=O)N[C@H]2C[C@H](O)C[C@@H](Nc3ncc(Cl)c(-c4c[nH]c5ccccc45)n3)C2)cc1` (racemic) [Compound 101, (+/−)-4-amino-N-(3-(5-chloro-4-(1H-indol-3-yl)pyrimidin-2-ylamino)-5-hydroxycyclohexyl)benzamide], the half-maximal inhibitory concentration (IC50) was less than 0.1 µM in experiment [1] and 0.5 to 5 µM in experiment [2]. Consider `Nc1ccc(C(=O)NC2CC(F)CC(Nc3ncc(Cl)c(-c4c[nH]c5ccccc45)n3)C2)cc1` (racemic) [Compound 110, (+/−)-4-amino-N-(3-(5-chloro-4-(1H-indol-3-yl)pyrimidin-2-ylamino)-5-fluorocyclohexyl)benzamide], for which the IC50 in experiment [1] lay in the range of 0.1 to 1 µM. Regarding `Nc1ccc(C(=O)NC23CC4CC(C2)CC(Nc2ncc(Cl)c(-c5c[nH]c6ccccc56)n2)(C4)C3)cc1` [Compound 100, 4-amino-N-(3-(5-chloro-4-(1H-indol-3-yl)pyrimidin-2-ylamino)tricyclo[3.3.1.1^3,7]decanyl)benzamide], in experiment [1], the IC50 was greater than 1 µM. Regarding `Nc1ccc(C(=O)N[C@H]2CCC[C@@H](Nc3ncc(Cl)c(-c4c[nH]c5ccccc45)n3)C2)cc1` [Compound 102, 4-amino-N-((1S,3R)-3-(5-chloro-4-(1H-indol-3-yl)pyrimidin-2-ylamino)cyclohexyl)benzamide], the IC50 in experiment [1] is 0.1 to 1 µM; in experiment [2] it was greater than 5 µM. As to `Nc1ccc(C(=O)N[C@H]2CCC[C@@H](Nc3ncc(C4CC4)c(-c4c[nH]c5ccccc45)n3)C2)cc1` [Compound 103, 4-amino-N-((1S,3R)-3-(5-cyclopropyl-4-(1H-indol-3-yl)pyrimidin-2-ylamino)cyclohexyl)benzamide.HCl], the concentration for half-maximal inhibition (IC50) in experiment [1] was 0.1 to 1 µM; in experiment [2], greater than 5 µM.

Regarding `Nc1ccc(C(=O)NC23CCCC(Nc4ncc(Cl)c(-c5c[nH]c6ccccc56)n4)(C2)C3)cc1` [Compound 104, 4-amino-N-(5-(5-chloro-4-(1H-indol-3-yl)pyrimidin-2-ylamino)bicyclo[3.1.1]heptan-1-yl)benzamide], the figures for the half-inhibitory concentration (IC50) in experiment [1] and in experiment [2] were 0.1 to 1 µM and greater than 5 µM, respectively. On the same counts, the results for `CN(C)CCCC(=O)Nc1ccc(C(=O)N[C@H]2CCC[C@@H](Nc3ncc(Cl)c(-c4c[nH]c5ccccc45)n3)C2)cc1` [Compound 105, N-((1S,3R)-3-((5-chloro-4-(1H-indol-3-yl)pyrimidin-2-yl)amino)cyclohexyl)-4-(4-(dimethylamino)butanamido)benzamide] are less than 0.1 µM and 0.5 to 5 µM. For the molecule `Nc1ccc(NC(=O)[C@H]2CCC[C@@H](Nc3ncc(Cl)c(-c4c[nH]c5ccccc45)n3)C2)cc1` [Compound 106, (1S,3R)—N-(4-aminophenyl)-3-(5-chloro-4-(1H-indol-3-yl)pyrimidin-2-ylamino)cyclohexanecarboxamide], the IC50 in experiment [1] is less than 0.1 µM; in experiment [2] it was greater than 5 µM.

In the case of `N#Cc1cnc(N[C@@H]2CCC[C@H](NC(=O)c3ccc(N)cc3)C2)nc1-c1c[nH]c2ccccc12` [Compound 107, 4-amino-N-((1S,3R)-3-(5-cyano-4-(1H-indol-3-yl)pyrimidin-2-ylamino)cyclohexyl)benzamide], the IC50 in experiment [1] is less than 0.1 µM; in experiment [2], less than 0.5 µM.

As for `Nc1ccc(C(=O)N[C@H]2CCC[C@@H](Nc3ncc(Cl)c(-c4cccnc4)n3)C2)cc1` [Compound 108, 4-amino-N-((1S,3R)-3-(5-chloro-4-(pyridin-3-yl)pyrimidin-2-ylamino)cyclohexyl)benzamide], the IC50 is greater than 1 µM in experiment [1] and greater than 5 µM in experiment [2]. Consider `Nc1ccc(S(=O)(=O)N[C@H]2CCC[C@@H](Nc3ncc(Cl)c(-c4c[nH]c5ccccc45)n3)C2)cc1` [Compound 109, 4-amino-N-((1S,3R)-3-(5-chloro-4-(1H-indol-3-yl)pyrimidin-2-ylamino)cyclohexyl)benzenesulfonamide], for which the IC50 in experiment [1] lay within 0.1 to 1 µM; in experiment [2] it was 0.5 to 5 µM. Take `Nc1ccc(C(=O)N[C@H]2CCC[C@@H](Nc3ncc(Cl)c(-c4c[nH]c5ccccc45)n3)C2)cc1F` [Compound 111, 4-amino-N-((1S,3R)-3-(5-chloro-4-(1H-indol-3-yl)pyrimidin-2-ylamino)cyclohexyl)-3-fluorobenzamide]: the 50% inhibitory concentration (IC50) was 0.1 to 1 µM in experiment [1] and greater than 5 µM in experiment [2]. Take `Nc1ccc(C(=O)N[C@H]2CCC[C@@H](Nc3ncc(Cl)c(-c4c[nH]c5ccccc45)n3)C2)c(F)c1` [Compound 112, 4-amino-N-((1S,3R)-3-(5-chloro-4-(1H-indol-3-yl)pyrimidin-2-ylamino)cyclohexyl)-2-fluorobenzamide]: the IC50 in experiment [1] fell in the range of 0.1 to 1 µM; in experiment [2], 0.5 to 5 µM.

On to `NC(=O)C(=O)Nc1ccc(C(=O)N[C@H]2CCC[C@@H](Nc3ncc(Cl)c(-c4c[nH]c5ccccc45)n3)C2)cc1` [Compound 113, N1-(4-(((1S,3R)-3-((5-chloro-4-(1H-indol-3-yl)pyrimidin-2-yl)amino)cyclohexyl)carbamoyl)phenyl)oxalamide], for which the IC50 in experiment [1] lay in the range of 0.1 to 1 µM; in experiment [2] it was 0.5 to 5 µM. With `Nc1ccc(C(=O)N[C@H]2CCC[C@@H](Nc3nccc(-c4c[nH]c5ccccc45)n3)C2)cc1` [Compound 114, N-((1S,3R)-3-(4-(1H-indol-3-yl)pyrimidin-2-ylamino)cyclohexyl)-4-aminobenzamide], the IC50 in experiment [1] was greater than 1 µM.
